This is an account of results in patent US20240285571A1, “METHODS OF TREATING BONE INFECTIONS” (MICROBION CORPORATION, priority 2020, published 2024).

For orientation: MIC means the lowest concentration found to suppress growth.

The subject of assay [1] is Clostridium sphenoides. As to the kind of experiment: MIC of baseline clinical isolates (Example 8). It counts as cell-based. The following applies: Clostridium sphenoides baseline isolates (N′ = 1), central laboratory, mITT. The procedure, abridged:
(§1)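 Isolates came from samples taken on Day 1 and at any later surgery at the index site: infected bone or tissue next to implants, deep infection-site swabs, and superficial tissue, wound closure or sinus tract. Local clinical laboratories analysed parallel sample sets to guide antibiotic treatment.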

Assay [2] has as its system S. aureus (MRSA, MSSA). The assay can be described thus: MIC of baseline clinical isolates (Example 8). As to conditions: Staphylococcus aureus, MRSA baseline isolates (N′ = 4), central laboratory, mITT. It counts as cell-based. The procedure, abridged: as §1
For assay [3], the system named is Staphylococcus haemolyticus. As to the kind of experiment: MIC of baseline clinical isolates (Example 8). It is filed as cell-based. As to conditions: Staphylococcus haemolyticus baseline isolates (N′ = 1), central laboratory, mITT. The procedure, abridged: as §1
For assay [4], the system named is Anaerococcus murdochii. As to the kind of experiment: MIC of baseline clinical isolates (Example 8). It counts as cell-based. The following applies: Anaerococcus murdochii baseline isolates (N′ = 1), central laboratory, mITT. The procedure, abridged:
as §1

Assay [5] has as its system Peptoniphilus gorbachii. As to the kind of experiment: MIC of baseline clinical isolates (Example 8). The following applies: Peptoniphilus gorbachii baseline isolates (N′ = 1), central laboratory, mITT. It is filed as cell-based. An outline of the steps:
as §1

In assay [6] the test system is Cutibacterium [Propionibacterium] acnes. As to the kind of experiment: MIC of baseline clinical isolates (Example 8). It counts as cell-based. The following applies: Cutibacterium (Proprionibacterium) acnes baseline isolates (N′ = 3), central laboratory, mITT. The procedure, abridged: as §1
The test system of assay [7] is E. coli. The following applies: E. coli MMX 102 (ATCC 25922); cited from earlier work.
Assay [8] deals with enterococci. As to the kind of experiment: MIC summary, enterococci (Example 5). The following applies: Enterococcus, VRE (Table 5), read-out: MIC values across isolates. It is filed as cell-based, E. faecalis and E. faecium. As to the method:
Test and Comparator Agents: The test agents were stored at room temperature until assayed. All test agents were suspended and diluted in 100% dimethylsulfoxide (DMSO), and were ultimately tested at a final concentration of 0.06-64 μg/mL. The stock solutions were allowed to stand for at least 1 hr prior to use to auto-sterilize.
TestMedia: Test media were prepared and stored in accordance with guidelines from CLSI (4, 6, 7). […] Neisseria gonorrhoeae were evaluated by agar dilution using agar consisting of GC medium base (BD; Lot No. 4274618) supplemented with 1% IsoVitaleX (BD; Lot No. 5246843).
Broth Microdilution MC Testing (Aerobic Bacteria and Yeast): The broth microdilution assay method employed for the susceptibility testing of aerobic bacteria (excluding N. gonorrhoeae which was evaluated by agar dilution) and yeast essentially followed the procedures described by CLSI (3, 4, 7, 8) and employed automated liquid handlers to conduct serial dilutions and liquid transfers. […]
Plates were stacked 4 high, covered with a lid on the top plate, placed into plastic bags, and incubated at 35° C. for approximately 24-48 hr for all yeast isolates and 16-24 hr for aerobic bacteria. […] MIC endpoints for the test agents and control compounds were read per CLSI criteria (3, 7).

For assay [9], the system named is E. faecalis. As to the kind of experiment: Broth microdilution MIC (Example 5). The following applies: Enterococcus faecalis, VRE. It counts as cell-based, Enterococcus faecalis. As to the method:
Test and Comparator Agents: The test agents were stored at room temperature until assayed. […] The stock solutions were allowed to stand for at least 1 hr prior to use to auto-sterilize.
TestMedia: Test media were prepared and stored in accordance with guidelines from CLSI (4, 6, 7).
Broth Microdilution MC Testing (Aerobic Bacteria and Yeast): The broth microdilution assay method employed for the susceptibility testing of aerobic bacteria (excluding N. gonorrhoeae which was evaluated by agar dilution) and yeast essentially followed the procedures described by CLSI (3, 4, 7, 8) and employed automated liquid handlers to conduct serial dilutions and liquid transfers. […] These would become the ‘mother plates’ from which ‘daughter’ or test plates would be prepared. The drugs (300 μL at 40× the desired top concentration in the test plates) were dispensed into the appropriate well in Column 1 of the mother plates. The Biomek 2000 was used to make serial two-fold dilutions through Column 11 in the “mother plate”. The wells of Column 12 contained no drug and ultimately served as the organism growth control wells.
The daughter plates were prepared using the Biomek FX which transferred 5 μL of drug solution from each well of a mother plate to the corresponding well of the correct daughter plate in a single step.
A standardized inoculum of each organism was prepared per CLSI methods (3, 7). Isolated colonies of each test isolate were picked from the primary plate and a suspension was prepared to equal a 0.5 McFarland turbidity standard. Standardized suspensions were then diluted […] (1:100 for yeast, 1:20 for bacteria). After dilution, the inoculum suspensions were then transferred to compartments of sterile reservoirs divided by length (Beckman Coulter), and the Biomek 2000 was used to inoculate all plates. Daughter plates were placed on the Biomek 2000 in reverse orientation so that plates were inoculated from low to high drug concentration.
The Biomek 2000 delivered 10 μL of standardized inoculum into each well of the appropriate daughter plate for an additional 1:20 dilution.
Plates were stacked 4 high, covered with a lid on the top plate, placed into plastic bags, and incubated at 35° C. for approximately 24-48 hr for all yeast isolates and 16-24 hr for aerobic bacteria. Plates were viewed from the bottom using a plate viewer. […] MIC endpoints for the test agents and control compounds were read per CLSI criteria (3, 7).
For orientation: Dilution methods test growth across graded concentrations, often in twofold steps.

In assay [10] the test system is C. difficile. The assay can be described thus: Agar dilution MIC, anaerobes (Example 5). It counts as cell-based, Clostridium difficile. As to conditions: Clostridioides difficile. For orientation: Agar dilution tests growth on a series of plates holding different concentrations.
Setting [11] is: ATCC700057, C. difficile MMX 4381 (ATCC 700057), QC, CCI.
Setting [12] is: C. difficile MMX 8272, ribotype 255, CCI.
Where [13] appears, read: C. difficile MMX 8279, ribotype 005, CCR.
Where [14] appears, read: C. difficile MMX 8281, ribotype 010, CCR.
Where [15] appears, read: NCTC13307, C. difficile MMX 5681 (NCTC 13307), ribotype 012, CCR.
[16] abbreviates: NCTC13336, C. difficile MMX 5680 (NCTC 13336), ribotype 027, CCI METR.

As for `CCC[C@@H]1C[C@@H](C(=O)N[C@@H]([C@H]2O[C@H](SC)[C@H](O)[C@@H](O)[C@H]2O)[C@H](C)Cl)N(C)C1` [CLI], the “Mean MIC” value was found to be 8.00 µg/mL in assay [1]; 4.16 µg/mL in [2]; 8.00 µg/mL in [3]; 8.00 µg/mL in assay [4]; 8.00 µg/mL in assay [5]; 0.25 µg/mL in assay [6]. Further, the “n (% resistant)” value in assay [1] is recorded as 1 (100.0) n (%); in assay [2] it was 1 (25.0) n (%); in [3], 1 (100.0) n (%); in [4] it was 1 (100.0) n (%); in assay [5] it was 1 (100.0) n (%); in [6] it was 0 (0.0) n (%).
In the case of `CC(C)(O/N=C(\C(=O)N[C@@H]1C(=O)N2C(C(=O)[O-])=C(C[n+]3ccccc3)CS[C@H]12)c1csc(N)n1)C(=O)O` [Ceftazidime], the “CLSI QC range of MIC” value in [7] is given as “(0.06-0.5) μg/mL”.
For `C[C@H]1COc2c(N3CCN(C)CC3)c(F)cc3c(=O)c(C(=O)O)cn1c23` [Levofloxacin], in assay [2], the MIC was determined as 8 µg/mL and the “n (% resistant)” value is on record as 4 (100.0) n (%). Also, in assay [3], the MIC was found to be 8 µg/mL and the “n (% resistant)” value is reported as 1 (100.0) n (%).
With `OCC(S)CS.[Bi]` (stereo not shown) [MB-2B, bismuth-2,3-dimercaptopropanol], the MIC is 2 to 4 µg/mL in [8]; 2 µg/mL in assay [9] (E. faecalis MMX 8960); 2 µg/mL in assay [9] (E. faecalis MMX 8961); 2 µg/mL in [9] (E. faecalis MMX 8962); 8 µg/mL in assay [10] (setting [11]); 8 µg/mL in assay [10] (setting [12]). The MIC in [10] (setting [13]) stood at 16 µg/mL; in [10] (setting [14]), 8 µg/mL; in assay [10] (setting [15]), 8 µg/mL; in assay [10] (setting [16]), 2 µg/mL.
In the case of `CC(S)C(C)S.[Bi]` (stereo not shown) [MB-6, bismuth-2,3-butanedithiol], the MIC in assay [8] was 0.25 to 1 µg/mL; in [9] (E. faecalis MMX 8960), 0.5 µg/mL; in [9] (E. faecalis MMX 8961) it was 0.25 µg/mL; in assay [9] (E. faecalis MMX 8962), 0.25 µg/mL; in assay [10] (setting [11]), 4 µg/mL; in assay [10] (setting [12]) it was 2 µg/mL. Further, the MIC in [10] (setting [13]), in assay [10] (setting [14]), in assay [10] (setting [15]) and in [10] (setting [16]) was 2 µg/mL each time.
For `C[C@@H](O)[C@H]1C(=O)N2C(C(=O)O)=C(S[C@@H]3CN[C@H](C(=O)N(C)C)C3)[C@H](C)[C@H]12` [Meropenem], the “n (% resistant)” value in [1], in [4], in [5] and in assay [6] was 0 (0.0) n (%) throughout. In addition, the MIC in assay [1] (Lacrimispora sphenoides) is 2 µg/mL; in [4] it was 0.06 µg/mL; in assay [5], 0.06 µg/mL; in assay [6], 0.06 µg/mL. Further, the “CLSI QC range of MIC” value in assay [7] is on record as “(0.008-0.06) μg/mL”.
